Values joined by “and” are separate entries in the source; they are usually repeats but may differ in a detail not shown here. Equal values may be shown once.

Assay [1] deals with EPIAIRWAY tissue (normal and asthmatic lung epithelium). Kind of assay: Periostin levels in IL-13 stimulated […] tissue models. The assay is classed as cell-based, human. The note with it: stimulation with 50 ng/mL IL-13 for 48 hours (FIG. 6). On the procedure:
FIG. 6: Periostin levels in IL-13 Stimulated […]™ Models (Normal and Asthmatic Lung Epithelium). Detection of periostin levels in […]™ tissue obtained from either normal healthy individuals or from asthma patients each receiving different treatments: Advair only; oral and inhaled steroids; no medication; or albuterol only. Periostin levels were determined using the biotin/streptavidin-HRP sandwich ELISA assay using 4B4.B11 as the capture antibody and biotinylated 7B5.C4 as the detection antibody. Samples receiving steroid were pre-treated for 6 hrs with 100 nM budesonide. Samples were either unstimulated or stimulated with 50 ng/mL IL-13±budesonide for 48 hours. Periostin levels increase following stimulation with IL-13. This increase is reduced with steroid treatment.
The assay provided in this disclosure was further used to measure periostin levels in the […]™ tissue model. EpiAirway tissue models were obtained from MatTek corporation. These tissues are a 3-D model of respiratory tract tissue obtained from either normal healthy individuals or from asthma patients. The model was used to evaluate 1 normal donor and 4 asthma donors. The 4 asthma donors each had received different treatments: Advair only; oral and inhaled steroids; no medication; or albuterol only. All tissue samples were cultured in appropriate cell culture media (provided from MatTek) for 24 hrs prior to stimulation. […]

The subject of assay [2] is patients with uncontrolled asthma. Conditions: above-median vs below-median baseline serum periostin; cited from earlier work.
The test system of assay [3] is adults with uncontrolled, severe asthma. Description: Phase 2b study CD-RI-CAT-354-1049 of SC tralokinumab, subgroup analysis by baseline serum periostin. The assay is classed as in vivo, human. Conditions: for Asthma exacerbation rate reduction: tralokinumab 300 mg Q2W vs placebo; for Change from baseline in ACQ-6 / Change from baseline in AQLQ / Percent change from baseline in FEV1: tralokinumab 300 mg Q2W. On the procedure:
A 5-week screening/run-in period (Week-5 to -1 [Day-1]) preceded randomisation. Starting at Week-4 (Day-28), patients received a fixed-dose combination product of fluticasone/salmeterol, either as an MDI (230 μg/21 μg) at a dose of 2 inhalations twice per day or as a DPI (500 μg/50 μg) at a dose of one inhalation twice per day. If the patient was also taking additional asthma controller medications (including leukotriene modifiers, theophylline, cromones, a secondary ICS, or oral prednisolone ≦20 mg/day or equivalent OCS), then these medications were to be continued at a stable dose during the screening/run-in and treatment period.
Patients were randomised in a 1:1 ratio to one of 2 cohorts (Cohort 1 or Cohort 2).
The median periostin level used in the study to define high periostin was a baseline serum periostin of ≧23 ng/mL (i.e., high periostin) as measured using an immunoassay.
FIGS. 11A-B; TABLE 4. The median periostin level used in the study to define high periostin was a baseline serum periostin of about ≧23 ng/mL (i.e., high periostin) as measured using an immunoassay. For a continuous representation of AER reduction by periostin level and percent change from baseline in pre-bronchodilator FEV, by serum periostin level, see FIG. 10.

[4] abbreviates: post hoc, 300 mg Q2W, FEV1 reversibility≧12% and serum periostin≧median at baseline.

In the case of “IL-13: 114 amino acid cytokine used to stimulate periostin expression”, the Periostin levels entry in assay [1] is “increase”.
Consider lebrikizumab, for which the “increases in FEV1” value in assay [2] is “larger increases in FEV1”.
As for tralokinumab, the “percent change from baseline in pre-bronchodilator FEV1 over time” value is on record as “No significant increases in FEV1” in assay [3] (300 mg Q2W group, through to Week 53, (FIG. 11B)); “Relative increases in FEV1 were observed” in assay [3] (300 mg Q2W group, through to Week 53, periostin >=median (FIG. 11A)); “No significant increases in FEV1” in assay [3] (Q2/4W group, through to Week 53, (FIG. 11B)). Besides, the “reduction in serum periostin levels” value in assay [3] (patients with baseline serum periostin above the median compared to those below the median) is listed as “Greater reduction”. Moreover, the “percentage increase from baseline in pre-bronchodilator FEV1 compared to placebo” value in assay [3] (setting [4]) is recorded as 13.85%. Besides, the “reduction in AER” value in assay [3] (setting [4]) came to 54%. Besides, the “Asthma exacerbation rate reduction” value in assay [3] (Week 53, ITT (N = 150)) turned out to be 7%; in assay [3] (Week 53, baseline serum Periostin ≧ Median) it was 25%. For the same substance, the figures for the “Change from baseline in ACQ-6” value in assay [3] (ITT), in assay [3] (Periostin < Median) and in assay [3] (Periostin ≧ Median) were −0.18, −0.02 and −0.23, respectively. Moreover, the “Change from baseline in AQLQ” value in assay [3] (ITT) worked out at 0.21; in assay [3] (Periostin < Median), 0.21; in assay [3] (Periostin ≧ Median) it was 0.22. For the same substance, the “Percent change from baseline in FEV1” value in assay [3] (Week 53, ITT / regardless of serum periostin level) is 7.1%; in assay [3] (Week 53, Periostin < Median), 7.06%; in assay [3] (Week 53, Periostin ≧ Median), 6.75% and 6.8%.

These data come from patent US9862762B2, “Monoclonal antibodies which bind human periostin” (MEDIMMUNE, LLC, priority 2014, dated 2018).
